The values that follow come from patent publication US8415469B2, “Compounds and methods for kinase modulation, and indications therefor” (Plexxikon Inc., priority 2005, dated 2013).

Structures are written as SMILES. pIC50: −log10 of the molar value.

Common to all, as to assay type: biochemical
Assay [1] deals with T1, FGFR1 (Homo sapiens, UniProt P11362, C488A/C584S).
T1 construct: P1351.pET N6 BI-PTP FGFR A458-E765-X C488A, C584S; made in house; host or cells: E. coli (PTP1B co-expressed)
The assay can be described thus: AlphaScreen kinase assay, FGFR1. The conditions noted are these: read-out: IC50, activity toward kinase FGFR. Background: Bead proximity is the source of the signal in Alpha formats.

In assay [2] the target is T2, Ret (Homo sapiens, UniProt P07949).
T2 construct: P1378.pET-SF BI-PTP RET H661-R1012 HIS; made in house
T2 sequence (P07949 with tags, fused parts or gaps): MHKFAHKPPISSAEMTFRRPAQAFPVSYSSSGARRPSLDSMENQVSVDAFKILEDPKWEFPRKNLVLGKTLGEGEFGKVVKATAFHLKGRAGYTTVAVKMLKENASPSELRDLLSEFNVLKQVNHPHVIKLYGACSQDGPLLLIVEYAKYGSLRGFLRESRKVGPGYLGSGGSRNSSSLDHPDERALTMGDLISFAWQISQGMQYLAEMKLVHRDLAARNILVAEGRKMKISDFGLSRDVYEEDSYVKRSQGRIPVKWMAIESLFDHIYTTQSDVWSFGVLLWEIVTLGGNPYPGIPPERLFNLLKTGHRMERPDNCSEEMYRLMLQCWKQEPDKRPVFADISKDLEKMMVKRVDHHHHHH
Put plainly: AlphaScreen kinase assay, Ret. The conditions noted are these: read-out: IC50, activity toward kinase Ret.

The target of assay [3] is T3, B-Raf V600E (Homo sapiens, UniProt P15056, V600E).
T3 construct: P4254. pFastBacBD-CDC37 BRAF D437-K722-X, V600E; His6 with pFastBac HT leader (TEV site) (N); made in house; host or cells: Sf9 (baculovirus; chaperone CDC37 co-expressed)
T3 sequence (P15056 with tags, fused parts or gaps V600E): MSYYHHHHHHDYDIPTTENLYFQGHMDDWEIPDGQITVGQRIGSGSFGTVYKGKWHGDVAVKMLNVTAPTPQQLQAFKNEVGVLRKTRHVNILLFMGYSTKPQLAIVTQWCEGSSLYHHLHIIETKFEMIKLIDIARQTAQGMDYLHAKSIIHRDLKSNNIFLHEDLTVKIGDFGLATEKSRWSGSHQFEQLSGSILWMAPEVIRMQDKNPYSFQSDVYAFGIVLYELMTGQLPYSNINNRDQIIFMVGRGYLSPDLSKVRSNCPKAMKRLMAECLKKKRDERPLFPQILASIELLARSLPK
Put plainly: AlphaScreen kinase assay, B-Raf V600E. The following applies: read-out: IC50, activity toward kinase B-Raf V600E.

Assay [4] addresses T4, Kit (Homo sapiens, UniProt P10721).
T4 construct: P1332.N6 BI PTP KIT M552-K948-X COD; His6 (N); made in house; host or cells: E. coli (PTP1B co-expressed)
Put plainly: AlphaScreen kinase assay, Kit. The conditions noted are these: read-out: IC50, activity toward kinase Kit.

Assay [5] concerns the target T5, Flt1 (Homo sapiens, UniProt P17948).
T5 construct: P1826.pETN6 BI-PTP FLT1 M799-D1165-X WT; His6 (N); made in house; host or cells: E. coli (PTP1B co-expressed)
T5 sequence (P17948 with tags, fused parts or gaps): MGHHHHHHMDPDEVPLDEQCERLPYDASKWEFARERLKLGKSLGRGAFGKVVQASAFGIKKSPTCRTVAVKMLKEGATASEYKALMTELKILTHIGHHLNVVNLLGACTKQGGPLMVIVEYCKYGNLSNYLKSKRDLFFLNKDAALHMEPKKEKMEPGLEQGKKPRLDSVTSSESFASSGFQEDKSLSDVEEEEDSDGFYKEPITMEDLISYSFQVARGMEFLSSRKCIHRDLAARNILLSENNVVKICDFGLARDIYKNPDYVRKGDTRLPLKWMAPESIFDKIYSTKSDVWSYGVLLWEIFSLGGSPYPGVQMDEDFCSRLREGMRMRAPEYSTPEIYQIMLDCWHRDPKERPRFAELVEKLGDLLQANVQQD
Put plainly: AlphaScreen kinase assay, Flt1. The conditions noted are these: read-out: IC50, activity toward kinase Flt1.

Assay [6] addresses T6, Fms (Homo sapiens, UniProt P07333).
T6 construct: purchased Upstate Biotechnology
The assay can be described thus: AlphaScreen kinase assay, Fms. The following applies: read-out: IC50, activity toward kinase Fms.

In general, pIC50 refers to the negative decadic logarithm of the IC50, by convention in mol/L.

T4 sequence (P10721 with tags, fused parts or gaps): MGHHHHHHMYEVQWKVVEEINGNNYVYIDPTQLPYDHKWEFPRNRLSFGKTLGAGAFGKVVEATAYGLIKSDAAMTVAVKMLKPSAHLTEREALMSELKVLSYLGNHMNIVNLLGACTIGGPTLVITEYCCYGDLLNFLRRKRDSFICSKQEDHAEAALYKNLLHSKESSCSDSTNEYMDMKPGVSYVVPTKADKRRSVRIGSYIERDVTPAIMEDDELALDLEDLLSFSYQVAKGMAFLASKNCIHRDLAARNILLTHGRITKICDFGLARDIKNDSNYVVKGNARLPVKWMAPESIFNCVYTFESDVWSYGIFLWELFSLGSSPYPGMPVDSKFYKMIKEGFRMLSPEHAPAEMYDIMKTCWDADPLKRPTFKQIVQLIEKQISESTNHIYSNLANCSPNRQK
T1 sequence (P11362 458-765 C488A/C584S): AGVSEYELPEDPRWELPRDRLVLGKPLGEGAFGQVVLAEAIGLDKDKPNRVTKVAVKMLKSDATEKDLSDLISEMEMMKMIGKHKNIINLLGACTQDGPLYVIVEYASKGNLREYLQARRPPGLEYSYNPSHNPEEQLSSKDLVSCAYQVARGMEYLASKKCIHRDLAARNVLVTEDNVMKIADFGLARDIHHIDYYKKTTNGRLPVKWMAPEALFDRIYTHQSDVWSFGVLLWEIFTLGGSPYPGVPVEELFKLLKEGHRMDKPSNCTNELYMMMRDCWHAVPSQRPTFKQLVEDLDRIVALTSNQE
T6 sequence (P07333 20-972): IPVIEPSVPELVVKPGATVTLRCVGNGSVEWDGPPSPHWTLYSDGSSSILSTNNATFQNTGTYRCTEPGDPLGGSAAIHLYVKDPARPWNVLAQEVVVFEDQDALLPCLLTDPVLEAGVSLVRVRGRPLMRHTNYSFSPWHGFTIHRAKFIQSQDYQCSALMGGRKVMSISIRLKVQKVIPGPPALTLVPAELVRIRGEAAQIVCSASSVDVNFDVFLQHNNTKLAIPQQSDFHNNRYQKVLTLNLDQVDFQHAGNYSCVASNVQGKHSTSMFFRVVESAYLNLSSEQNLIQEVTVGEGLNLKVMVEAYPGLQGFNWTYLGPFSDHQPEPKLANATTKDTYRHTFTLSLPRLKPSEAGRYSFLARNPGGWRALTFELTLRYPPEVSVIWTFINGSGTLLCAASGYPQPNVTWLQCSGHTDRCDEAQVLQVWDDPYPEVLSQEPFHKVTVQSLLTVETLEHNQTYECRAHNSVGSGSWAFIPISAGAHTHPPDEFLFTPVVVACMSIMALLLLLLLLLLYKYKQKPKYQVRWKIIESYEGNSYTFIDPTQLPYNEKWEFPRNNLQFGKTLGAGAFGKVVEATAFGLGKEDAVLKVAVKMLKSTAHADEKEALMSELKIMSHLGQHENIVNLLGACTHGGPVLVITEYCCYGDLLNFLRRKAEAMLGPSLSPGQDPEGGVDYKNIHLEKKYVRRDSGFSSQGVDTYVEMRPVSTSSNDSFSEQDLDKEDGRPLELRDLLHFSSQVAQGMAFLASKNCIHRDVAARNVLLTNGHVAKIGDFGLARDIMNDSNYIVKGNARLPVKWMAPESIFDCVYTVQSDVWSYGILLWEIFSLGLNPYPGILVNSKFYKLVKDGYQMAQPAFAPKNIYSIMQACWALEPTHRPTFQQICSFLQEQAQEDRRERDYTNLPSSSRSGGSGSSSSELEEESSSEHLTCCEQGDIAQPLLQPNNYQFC

Consider `O=C(c1cccc(Cl)c1Cl)c1c[nH]c2nccc(Cl)c12` [Compound P-0232], for which the negative-log IC50 (pIC50) in assay [1] and in assay [2] was no less than 5.00 each time.

In the case of `O=C(c1ccccc1)c1c[nH]c2nccc([N+](=O)[O-])c12` [Compound P-0246], the pIC50 in assay [1], in assay [2] and in assay [3] was no less than 5.00 throughout.

As to `COc1ccc(C(=O)c2c[nH]c3ncc(-c4cccs4)cc23)c(Cl)c1` [Compound P-0248], the negative-log IC50 (pIC50) in assay [4], in assay [1], in assay [2] and in assay [3] was no less than 5.00 throughout.

Turning to `COc1cccc(C(=O)c2c[nH]c3ncc(Br)cc23)c1` [Compound P-0341], the negative logarithm of the IC50 (pIC50) in assay [4], in assay [1] and in assay [2] was no less than 5.00 in each case.

As for `O=C(c1c(F)cccc1F)c1c[nH]c2nccc(-c3cc(F)cc(F)c3)c12` [Compound P-0344], the pIC50 in assay [1], in assay [2] and in assay [3] was no less than 5.00 in each case.

Turning to `COc1cccc(C(=O)c2c[nH]c3nccc(-c4cccc(NC(C)=O)c4)c23)c1` [Compound P-0363], the pIC50 in assay [1] and in assay [2] was no less than 5.00 each time.

In the case of `Clc1ccc(Cc2c[nH]c3ncc(-c4ccsc4)cc23)cn1` [Compound P-0385], the negative-log IC50 (pIC50) in assay [4], in assay [1] and in assay [2] was no less than 5.00 throughout.

For `COc1cccc(Cc2c[nH]c3ncc(-c4ccsc4)cc23)c1` [Compound P-0392], the negative logarithm of the IC50 (pIC50) in assay [4], in assay [1] and in assay [2] was no less than 5.00 in each case.

As to `Fc1ccc(-c2c[nH]c3ncccc23)c(F)c1` [Compound P-0470], the pIC50 in assay [5] was no less than 5.00.

As to `O=C(c1ccccc1F)c1c[nH]c2nccc(-c3ccc(Cl)cc3)c12` [Compound P-0472], the negative-log IC50 (pIC50) in assay [2] and in assay [3] was no less than 5.00 in each case.

For `c1ccc(C(CNCc2c[nH]c3ncccc23)c2ccccc2)cc1` [Compound P-0514], in assay [5], the pIC50 was no less than 5.00.

For `COc1ccc(-c2ccnc3[nH]cc(C(=O)c4cccc(O)c4)c23)cn1` [Compound P-0520], the negative logarithm of the IC50 (pIC50) in assay [1] and in assay [2] was no less than 5.00 throughout.

For `O=C(c1ccccc1)c1c[nH]c2ncc(Br)cc12` [Compound P-0561], the negative-log IC50 (pIC50) in assay [4], in assay [1] and in assay [2] was no less than 5.00 each time.

Take `O=S(=O)(NCc1c[nH]c2ncccc12)c1cc(Cl)sc1Cl` [Compound P-0603]: the negative-log IC50 (pIC50) in assay [5] and in assay [3] was no less than 5.00 in each case.

On to `O=C(c1cc(F)ccc1F)c1c[nH]c2nccc(-c3ccc(Cl)cc3)c12` [Compound P-0638], for which the pIC50 in assay [2] and in assay [3] was no less than 5.00 each time.

In the case of `O=C(c1cc(Cl)ccc1F)c1c[nH]c2ncc(-c3cccs3)cc12` [Compound P-0644], the pIC50 in assay [4] and in assay [2] was no less than 5.00 throughout.

As for `O=C(c1cc(F)ccc1F)c1c[nH]c2ncc(-c3ccsc3)cc12` [Compound P-0699], the pIC50 in assay [4], in assay [1] and in assay [2] was no less than 5.00 throughout.

Turning to `O=C(c1ccccc1)c1c[nH]c2ncc(Br)c([N+](=O)[O-])c12` [Compound P-0736], the pIC50 in assay [4] and in assay [2] was no less than 5.00 in each case.

In the case of `Cc1ccccc1S(=O)(=O)NCc1c[nH]c2ncccc12` [Compound P-0768], the pIC50 in assay [5] is no less than 5.00.

`COc1cccc(Cc2c[nH]c3nccc(-c4ccsc4)c23)n1` [Compound P-0810]: the pIC50 in assay [4], in assay [2] and in assay [3] was no less than 5.00 throughout.

In the case of `Cc1cc(C(=O)c2c[nH]c3ncc(-c4cccc(NS(C)(=O)=O)c4)cc23)n(C)n1` [Compound P-0825], the negative-log IC50 (pIC50) in assay [4] and in assay [2] was no less than 5.00 in each case.

Take `Cc1cc(C(=O)c2c[nH]c3ncc(-c4cccnc4)cc23)no1` [Compound P-0826]: the pIC50 in assay [1] and in assay [2] was no less than 5.00 each time.

In the case of `c1cc(Cc2c[nH]c3ncc(-c4ccsc4)cc23)cc(OCCOC2CCCCO2)c1` (stereo not drawn) [Compound P-0835], the pIC50 in assay [4], in assay [1], in assay [2] and in assay [6] was no less than 5.00 each time.

On to `Cc1ccc(F)cc1C(=O)c1c[nH]c2nccc(-c3cccc(C(N)=O)c3)c12` [Compound P-0976], for which the pIC50 in assay [1], in assay [2] and in assay [3] was no less than 5.00 each time.

As to `NC(=O)c1ccc(-c2cnc3[nH]cc(C(=O)c4cccc(Cl)c4Cl)c3c2)cc1` [Compound P-0977], the negative-log IC50 (pIC50) in assay [1] and in assay [2] was no less than 5.00 in each case.

Take `Cc1cc(C(=O)c2c[nH]c3nccc(-c4ccc(C(N)=O)cc4)c23)no1` [Compound P-1007]: the pIC50 in assay [2] and in assay [3] was no less than 5.00 throughout.

In the case of `Cc1ccc(F)cc1C(=O)c1c[nH]c2nccc(-c3ccc(C(N)=O)cc3)c12` [Compound P-1024], the pIC50 in assay [2] and in assay [3] was no less than 5.00 each time.

Take `Cc1cc(C(=O)c2c[nH]c3nccc(-c4cccc(NS(C)(=O)=O)c4)c23)no1` [Compound P-1025]: the negative logarithm of the IC50 (pIC50) in assay [2] and in assay [3] was no less than 5.00 throughout.

`Cc1cc(C(=O)c2c[nH]c3nccc(-c4ccsc4)c23)no1` [Compound P-1026]: the negative logarithm of the IC50 (pIC50) in assay [2] and in assay [3] was no less than 5.00 each time.

Consider `Cc1cc(C(=O)c2c[nH]c3nccc(-c4cccnc4)c23)no1` [Compound P-1029], for which the negative logarithm of the IC50 (pIC50) in assay [2] and in assay [3] was no less than 5.00 throughout.

For the molecule `Cc1cc(C(=O)c2c[nH]c3nccc(-c4cccc(S(C)(=O)=O)c4)c23)no1` [Compound P-1031], the pIC50 in assay [2] and in assay [3] was no less than 5.00 in each case.

Take `O=C(c1ccc(Cl)cc1)c1c[nH]c2ncc(Br)cc12` [Compound P-1033]: the negative logarithm of the IC50 (pIC50) in assay [4] and in assay [2] was no less than 5.00 in each case.

For `COc1cccc(C(=O)c2c[nH]c3nccc(-c4cccc(/C=C/C(=O)O)c4)c23)c1` [Compound P-1066], the negative-log IC50 (pIC50) in assay [1] and in assay [2] was no less than 5.00 each time.

With `CC(=O)Nc1cccc(-c2ccnc3[nH]cc(C(=O)c4cc(C)on4)c23)c1` [Compound P-1085], the pIC50 in assay [2] and in assay [3] was no less than 5.00 each time.

For `O=C(c1cc(F)ccc1F)c1c[nH]c2ncc(-c3cccnc3)cc12` [Compound P-1111], the negative logarithm of the IC50 (pIC50) in assay [1] and in assay [2] was no less than 5.00 in each case.

As for `COc1ccc(-c2ccnc3[nH]cc(C(=O)c4cc(C)on4)c23)cn1` [Compound P-1113], the pIC50 in assay [2] and in assay [3] was no less than 5.00 each time.

Take `COc1cccc(C(=O)c2c[nH]c3nccc(-c4cccnc4)c23)c1` [Compound P-1117]: the negative logarithm of the IC50 (pIC50) in assay [2] and in assay [3] was no less than 5.00 in each case.

Turning to `COc1cccc(C(=O)c2c[nH]c3nccc(-c4cccc(S(C)(=O)=O)c4)c23)c1` [Compound P-1125], the pIC50 in assay [1] and in assay [2] was no less than 5.00 throughout.

In the case of `COc1cccc(C(=O)c2c[nH]c3nccc(-c4ccsc4)c23)c1` [Compound P-1188], the negative logarithm of the IC50 (pIC50) in assay [1] and in assay [2] was no less than 5.00 in each case.

Turning to `CCOc1ccccc1C(O)c1c[nH]c2ncc(-c3cccnc3)cc12` (stereo not drawn) [Compound P-1533], the negative-log IC50 (pIC50) in assay [5] was no less than 5.00.

As to `O=C(NCC(F)(F)F)Nc1ccc(F)c(Cc2c[nH]c3ncc(Cl)cc23)c1F` [Compound P-1601, 1-[3-(5-Chloro-1H-pyrrolo[2,3-b]pyridin-3-ylmethyl)-2,4-difluoro-phenyl]-3-(2,2,2-trifluoro-ethyl)-urea], the negative logarithm of the IC50 (pIC50) in assay [5] and in assay [3] was no less than 5.00 in each case.

In the case of `COC(=O)Nc1cccc(C(=O)c2c[nH]c3ncc(Cl)cc23)c1` [Compound P-1619], the pIC50 in assay [5] was no less than 5.00.

As to `CCCn1cccc1C(c1c[nH]c2ncc(-c3cccnc3)cc12)n1ccc2cc(-c3cccnc3)cnc21` (stereo not drawn) [Compound P-1686], the negative logarithm of the IC50 (pIC50) in assay [5] was no less than 5.00.
